What was measured:
[1] = molecular target: T1, thioredoxin reductase (TrxR), rat liver (Rattus norvegicus, UniProt O89049); assay: DTNB reduction assay with purified rat liver TrxR, […] min preincubation, […] nm
T1 construct: gene Txnrd1

[2] = molecular target: T1, thioredoxin reductase (TrxR), rat liver; assay: DTNB reduction assay with purified rat liver TrxR, reference inhibitor

T1 sequence (O89049 whole entry): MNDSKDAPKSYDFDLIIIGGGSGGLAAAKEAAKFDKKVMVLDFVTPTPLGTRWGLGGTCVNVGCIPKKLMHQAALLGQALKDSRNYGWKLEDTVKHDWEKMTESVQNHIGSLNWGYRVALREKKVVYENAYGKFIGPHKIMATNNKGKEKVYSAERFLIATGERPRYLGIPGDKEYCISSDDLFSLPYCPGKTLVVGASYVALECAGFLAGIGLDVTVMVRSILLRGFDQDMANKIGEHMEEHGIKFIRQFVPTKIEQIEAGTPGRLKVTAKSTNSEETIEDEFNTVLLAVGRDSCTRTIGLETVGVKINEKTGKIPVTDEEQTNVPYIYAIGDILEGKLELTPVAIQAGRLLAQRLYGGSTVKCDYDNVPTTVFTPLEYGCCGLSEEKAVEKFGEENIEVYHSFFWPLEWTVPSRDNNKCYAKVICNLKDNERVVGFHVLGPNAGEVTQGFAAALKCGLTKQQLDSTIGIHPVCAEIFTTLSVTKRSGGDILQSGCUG

Structure (SMILES) | IC50 [1] [nM] | IC50 [2] [nM]
CC[P+](CC)(CC)[Au-][C]#Cc1ccc(OC)cc1 [compound 1, complex 1] | 50 ± 10 | 
CC[P](CC)(CC)=[Au][S][C@@H]1O[C@H](COC(C)=O)[C@@H](OC(C)=O)[C@H](OC(C)=O)[C@H]1OC(C)=O [AF, Auranofin] |  | 30

Reference: article PMC11975047, “Antiproliferative effects, mechanism of action and tumor reduction studies in a lung cancer xenograft mouse model of an organometallic gold(I) alkynyl complex” (RSC Medicinal Chemistry, 2025)
